Source: ChEMBL document CHEMBL1629525, “Synthesis and characterization of 1,3-dihydro-benzo[b][1,4]diazepin-2-one derivatives: Part 4. In vivo active potent and selective non-competitive metabotropic glutamate receptor 2/3 antagonists” (Bioorg Med Chem Lett, 2010)
In brackets after ≈: the same amount, converted by molar mass. One block for each compound: values may come before it. Activity calls are given as the source filed them. The calls are words filed in the database; no cut-off is given here.

How the values were obtained:
[1] = target: T1, Metabotropic glutamate receptor 2 (Rattus norvegicus, UniProt P31421); assay: Antagonist activity at recombinant rat mGluR2 expressed in forskolin-stimulated CHO cells assessed as inhibition of (1S,3R)-ACPD induced cAMP production; type: functional, cell-based
[2] = target: T1, Metabotropic glutamate receptor 2; assay: Partial displacement of [3H]LY354740 from recombinant rat mGluR2
Cytochrome P450 3A4 = Cytochrome P450 3A4 (Homo sapiens, UniProt P08684); assay: Inhibition of CYP3A4; type: ADME
[3] = target: Metabotropic glutamate receptor 3 (Rattus norvegicus, UniProt P31422); assay: Antagonist activity at rat mGluR3 receptor expressed in CHO cells assessed as inhibition of GIRK current; type: functional, cell-based
Liver microsomes = assay: Clearance in rat liver microsomes; type: ADME, Microsome
[4] = target: Metabotropic glutamate receptor 2 (Homo sapiens, UniProt Q14416); assay: Antagonist activity at human mGluR2 receptor expressed in CHO cells assessed as inhibition of GIRK current; type: functional, cell-based
[5] = Thermodynamic solubility of the compound at pH 3; type: physicochemical; conditions: buffer
[6] = target: T1, Metabotropic glutamate receptor 2; assay: Antagonist activity at rat mGluR2 receptor expressed in CHO cells assessed as inhibition of GIRK current; type: functional, cell-based
Rattus norvegicus [7] = species on record: Rattus norvegicus; assay: Antiamnesic activity in rat assessed as inhibition of LY354740-induced impairment of working memory by DMTP test; type: functional, organism-based
[8] = Half life in rat at 2.5 mg/kg, iv; type: ADME, organism-based; design: dose 2.5 mg/kg, route intravenous; conditions: in vivo
Rattus norvegicus [9] = assay: Antiamnesic activity in rat assessed as partial inhibition of LY354740-induced impairment of working memory at 3 mg/kg, po by DMTP test; type: functional, organism-based; design: dose 3 mg/kg
Rattus norvegicus [10] = assay: Antagonist activity at rat mGluR2 assessed as inhibition of LY354740-induced hypoactivity at 10 mg/kg, po; type: functional, organism-based; design: dose 10 mg/kg
Homo sapiens = species on record: Homo sapiens; assay: Induction of cognitive impairment in human; type: functional, organism-based
Rattus norvegicus [11] = species on record: Rattus norvegicus; assay: Amnesic activity in rat assessed as latency to response by DMTP test; type: functional, organism-based
[12] = Clearance in rat at 2.5 mg/kg, iv; type: ADME, organism-based; design: dose 2.5 mg/kg, route intravenous; conditions: in vivo
Rattus norvegicus [13] = assay: Antagonist activity at rat mGluR3 assessed as inhibition of LY354740-induced hypoactivity at 10 mg/kg, po; type: functional, organism-based; design: dose 10 mg/kg
Rattus norvegicus [14] = assay: Neurotoxicity in rat assessed as effect on spontaneous locomotor activity upto 30 mg/kg, po; type: toxicity, organism-based; design: dose 30 mg/kg, route oral; conditions: in vivo
[15] = Oral bioavailability in rat at 10 mg/kg, po; type: ADME, organism-based; conditions: in vivo
Rhesus monkey = assay: Induction of working memory impairment in Rhesus monkey by DMTP test; type: functional, organism-based; conditions: Macaca mulatta
[16] = Volume of dustribution at steady state in rat at 2.5 mg/kg, iv; type: ADME, organism-based; design: dose 2.5 mg/kg, route intravenous; conditions: in vivo, read-out: Vdss
Rattus norvegicus [17] = species on record: Rattus norvegicus; assay: Amnesic activity in rat assessed as missed trials by DMTP test; type: functional, organism-based
Rattus norvegicus [18] = assay: Agonist activity at rat mGluR2 assessed as decrease in spontaneous locomotor activity at 10 mg/kg, sc after 30 mins; type: functional, organism-based; design: dose 10 mg/kg
Rattus norvegicus [19] = assay: Agonist activity at rat mGluR3 assessed as decrease in spontaneous locomotor activity at 10 mg/kg, sc after 30 mins; type: functional, organism-based; design: dose 10 mg/kg
Rattus norvegicus [20] = assay: Antiamnesic activity in rat assessed as partial reversal of scopolamine-induced impairment of working memory at 0.06 mg/kg, sc by DMTP test; type: functional, organism-based; design: dose 0.06 mg/kg
Rattus norvegicus [21] = assay: Antiamnesic activity in rat assessed as partial inhibition of LY354740-induced impairment of working memory at 10 mg/kg, po by DMTP test; type: functional, organism-based; design: dose 10 mg/kg
Rattus norvegicus [22] = assay: Antiamnesic activity in rat assessed as partial reversal of scopolamine-induced impairment of working memory at 3 mg/kg, po by DMTP test; type: functional, organism-based; design: dose 3 mg/kg
Rattus norvegicus [23] = species on record: Rattus norvegicus; assay: Induction of working memory impairment in rat by DMTP test; type: functional, organism-based
Rattus norvegicus [24] = assay: Neurotoxicity in rat assessed as effect on grip strength upto 30 mg/kg, po; type: toxicity, organism-based; design: dose 30 mg/kg, route oral; conditions: in vivo
Rattus norvegicus [25] = assay: Neurotoxicity in rat assessed as locomotor activity upto 30 mg/kg, po by rotarod test; type: toxicity, organism-based; design: dose 30 mg/kg, route oral; conditions: in vivo
Rattus norvegicus [26] = assay: Neurotoxicity in rat assessed as antidepressant-like activity at 1 mg/kg after 35 to 180 mins, po; type: toxicity, organism-based; design: dose 1 mg/kg, route oral; conditions: in vivo
[27] = Ratio of drug level in brain to plasma in rat; type: ADME; conditions: brain and plasma

T1 sequence (P31421 whole entry): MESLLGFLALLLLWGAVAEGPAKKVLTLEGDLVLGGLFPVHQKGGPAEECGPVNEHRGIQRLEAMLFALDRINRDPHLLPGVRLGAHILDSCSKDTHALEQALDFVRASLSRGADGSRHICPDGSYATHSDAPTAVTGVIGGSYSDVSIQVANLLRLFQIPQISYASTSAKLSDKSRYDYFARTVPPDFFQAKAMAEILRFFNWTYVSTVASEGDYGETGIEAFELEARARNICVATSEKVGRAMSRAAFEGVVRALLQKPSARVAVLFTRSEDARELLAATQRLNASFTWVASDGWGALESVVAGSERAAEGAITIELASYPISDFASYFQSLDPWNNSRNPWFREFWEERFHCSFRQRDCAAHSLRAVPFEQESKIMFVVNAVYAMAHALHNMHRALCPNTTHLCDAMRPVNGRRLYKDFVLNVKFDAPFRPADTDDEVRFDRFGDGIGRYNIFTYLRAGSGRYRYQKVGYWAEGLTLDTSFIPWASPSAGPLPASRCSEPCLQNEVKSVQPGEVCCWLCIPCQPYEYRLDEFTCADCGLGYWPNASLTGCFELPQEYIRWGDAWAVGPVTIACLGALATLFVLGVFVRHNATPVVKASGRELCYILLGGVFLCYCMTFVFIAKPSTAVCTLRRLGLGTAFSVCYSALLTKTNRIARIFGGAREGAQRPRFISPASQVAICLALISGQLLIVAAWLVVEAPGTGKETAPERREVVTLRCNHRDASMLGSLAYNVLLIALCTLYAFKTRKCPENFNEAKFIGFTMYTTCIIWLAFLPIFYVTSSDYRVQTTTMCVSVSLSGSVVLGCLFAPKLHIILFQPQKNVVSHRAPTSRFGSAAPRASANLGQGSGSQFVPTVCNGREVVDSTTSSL
Chain of Metabotropic glutamate receptor 2 (Homo sapiens, UniProt Q14416) (Q14416 whole entry): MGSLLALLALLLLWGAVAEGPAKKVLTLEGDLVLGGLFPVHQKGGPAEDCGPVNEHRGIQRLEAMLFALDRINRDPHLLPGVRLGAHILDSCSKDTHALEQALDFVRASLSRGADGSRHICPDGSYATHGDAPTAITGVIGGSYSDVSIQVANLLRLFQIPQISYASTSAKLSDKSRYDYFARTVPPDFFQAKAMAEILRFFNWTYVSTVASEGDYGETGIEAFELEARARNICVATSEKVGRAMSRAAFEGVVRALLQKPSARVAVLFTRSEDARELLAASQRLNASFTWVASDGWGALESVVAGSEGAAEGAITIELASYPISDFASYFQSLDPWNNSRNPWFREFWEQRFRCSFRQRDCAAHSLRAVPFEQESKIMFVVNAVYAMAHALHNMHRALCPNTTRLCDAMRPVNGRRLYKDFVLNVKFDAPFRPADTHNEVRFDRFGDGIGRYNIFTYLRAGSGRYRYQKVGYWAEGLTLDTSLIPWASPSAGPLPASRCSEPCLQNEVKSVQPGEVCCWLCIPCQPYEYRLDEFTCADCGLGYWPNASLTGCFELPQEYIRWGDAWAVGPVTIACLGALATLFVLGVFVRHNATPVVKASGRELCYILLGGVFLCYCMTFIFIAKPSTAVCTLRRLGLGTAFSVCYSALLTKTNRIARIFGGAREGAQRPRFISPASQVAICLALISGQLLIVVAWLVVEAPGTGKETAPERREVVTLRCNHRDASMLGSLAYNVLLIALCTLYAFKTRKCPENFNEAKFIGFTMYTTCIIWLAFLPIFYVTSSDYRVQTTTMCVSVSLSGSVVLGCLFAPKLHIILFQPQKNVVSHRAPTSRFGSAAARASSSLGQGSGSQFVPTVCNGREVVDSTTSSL
Chain of Cytochrome P450 3A4 (P08684 whole entry): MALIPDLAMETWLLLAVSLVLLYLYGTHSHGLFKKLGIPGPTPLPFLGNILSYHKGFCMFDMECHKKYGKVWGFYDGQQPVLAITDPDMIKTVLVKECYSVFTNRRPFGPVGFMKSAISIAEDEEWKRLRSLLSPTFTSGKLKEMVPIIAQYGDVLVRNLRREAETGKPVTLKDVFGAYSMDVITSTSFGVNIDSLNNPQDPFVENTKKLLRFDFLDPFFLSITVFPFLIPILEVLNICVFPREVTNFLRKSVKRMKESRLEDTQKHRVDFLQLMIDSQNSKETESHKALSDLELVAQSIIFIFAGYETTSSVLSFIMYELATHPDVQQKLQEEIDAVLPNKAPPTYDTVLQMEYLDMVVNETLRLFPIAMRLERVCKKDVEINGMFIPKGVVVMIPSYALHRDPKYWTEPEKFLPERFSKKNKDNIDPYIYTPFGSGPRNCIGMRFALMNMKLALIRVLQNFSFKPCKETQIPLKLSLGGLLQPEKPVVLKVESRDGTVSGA
Chain of Metabotropic glutamate receptor 3 (P31422 whole entry): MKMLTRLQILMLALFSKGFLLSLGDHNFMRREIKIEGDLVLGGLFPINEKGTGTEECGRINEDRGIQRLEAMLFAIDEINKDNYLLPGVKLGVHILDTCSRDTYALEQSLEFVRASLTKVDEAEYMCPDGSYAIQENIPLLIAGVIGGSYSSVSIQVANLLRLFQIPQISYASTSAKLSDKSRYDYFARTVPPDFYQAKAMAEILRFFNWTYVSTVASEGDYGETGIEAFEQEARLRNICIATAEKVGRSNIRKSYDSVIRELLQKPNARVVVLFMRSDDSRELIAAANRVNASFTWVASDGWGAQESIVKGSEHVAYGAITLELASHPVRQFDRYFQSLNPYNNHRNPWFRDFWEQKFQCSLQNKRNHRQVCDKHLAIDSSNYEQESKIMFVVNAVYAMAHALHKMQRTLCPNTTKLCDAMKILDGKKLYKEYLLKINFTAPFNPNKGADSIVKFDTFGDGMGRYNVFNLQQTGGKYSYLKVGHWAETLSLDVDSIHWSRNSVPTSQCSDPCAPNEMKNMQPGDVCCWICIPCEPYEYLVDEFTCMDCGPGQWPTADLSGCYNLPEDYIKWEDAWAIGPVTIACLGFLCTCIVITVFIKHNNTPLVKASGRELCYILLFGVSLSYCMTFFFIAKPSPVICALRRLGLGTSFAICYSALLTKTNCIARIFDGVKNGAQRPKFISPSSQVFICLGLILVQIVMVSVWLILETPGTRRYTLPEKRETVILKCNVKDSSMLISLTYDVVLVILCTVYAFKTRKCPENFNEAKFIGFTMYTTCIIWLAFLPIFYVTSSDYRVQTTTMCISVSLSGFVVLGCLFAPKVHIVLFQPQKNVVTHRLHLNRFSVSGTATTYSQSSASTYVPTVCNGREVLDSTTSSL

SMILES: Cc1cc2c(cc1C(F)(F)F)NC(=O)CC(c1cccc(-c3cncnc3)c1)=N2
IC50 [1]: 48 nM
IC50 [2]: 23 nM

SMILES: Cc1cc2c(cc1C(F)(F)F)NC(=O)CC(c1cccc(-c3cccnn3)c1)=N2
IC50 [2]: 128 nM

SMILES: COCc1cc(-c2cccc(C3=Nc4cc(C)c(C(F)(F)F)cc4NC(=O)C3)c2)ccn1
IC50 [1]: 6 nM
IC50 [2]: 13 nM

SMILES: Cc1cc2c(cc1C(F)(F)F)NC(=O)CC(c1cccc(-n3ccnc3)c1)=N2
IC50 (Cytochrome P450 3A4): < 100 nM

SMILES: Cc1cc2c(cc1C(F)(F)F)NC(=O)CC(c1cccc(-n3nncc3CO)c1)=N2
IC50 [2]: 120 nM

SMILES: Cc1cc(-c2cccc(C3=Nc4cc(C)c(C(F)(F)F)cc4NC(=O)C3)c2)on1
IC50 [1]: 9 nM
IC50 [2]: 5 nM

SMILES: Cc1cc(-c2cccc(C3=Nc4cc(C)c(C(F)(F)F)cc4NC(=O)C3)c2)ccn1
IC50 [3]: 14 nM
CL (Liver microsomes): 0.8 mL/min/kg
IC50 [1]: 4 nM
IC50 (Cytochrome P450 3A4): 1900 nM
IC50 [4]: 41 nM
IC50 [2]: 4 nM
solubility thermodynamic [5]: 45 µg/mL (≈ 110 µM)
IC50 [6]: 13 nM

SMILES: Cc1cc2c(cc1C(F)(F)F)NC(=O)CC(c1cccc(-c3ccnnc3)c1)=N2
IC50 [1]: 72 nM
IC50 [2]: 18 nM

SMILES: CCOc1cc2c(cc1C(F)(F)F)NC(=O)CC(c1cccc(-c3ccnc(C)c3)c1)=N2
IC50 [3]: 3 nM
IC50 [1]: 8 nM
IC50 [4]: 15 nM
IC50 [2]: 6 nM

SMILES: Cc1cc(-c2cccc(C3=Nc4cc(Cl)c(Cl)cc4NC(=O)C3)c2)ccn1
IC50 [3]: 30 nM
IC50 [1]: 2 nM
IC50 [4]: 7 nM
IC50 [2]: 4 nM

SMILES: O=C1CC(c2cccc(-n3ccnn3)c2)=Nc2ccc(-c3ccccc3F)cc2N1
IC50 [3]: 33 nM
IC50 [1]: 27 nM
IC50 [2]: 12 nM
IC50 [6]: 11 nM

SMILES: Cc1cc(-c2cccc(C3=Nc4cc(C)c(C(F)(F)F)cc4NC(=O)C3)c2)cc(C)n1
Activity (Rattus norvegicus [7]): Active
half-life [8]: 12.8 h
IC50 [3]: < 10 nM
Activity (Rattus norvegicus [9]): Dose-dependent effect
CL (Liver microsomes): 4.7 mL/min/kg
Activity (Rattus norvegicus [10]): Active
Activity (Homo sapiens): Active
IC50 [1]: 3 nM
Activity (Rattus norvegicus [11]): Dose-dependent effect
clearance [12]: 5.7 mL/min/kg
Activity (Rattus norvegicus [13]): Active
Activity (Rattus norvegicus [14]): Non-toxic
bioavailability [15]: 52%
IC50 (Cytochrome P450 3A4): 4800 nM
Activity (Rhesus monkey): Active
Vd [16]: 5.8 L/kg
Activity (Rattus norvegicus [17]): Dose-dependent effect
Activity (Rattus norvegicus [18]): Dose-dependent effect
Activity (Rattus norvegicus [19]): Dose-dependent effect
Activity (Rattus norvegicus [20]): Active
IC50 [4]: 14 nM
IC50 [2]: 2 nM
Activity (Rattus norvegicus [21]): Active
solubility thermodynamic [5]: 64 µg/mL (≈ 151 µM)
Activity (Rattus norvegicus [22]): Active
Activity (Rattus norvegicus [23]): Dose-dependent effect
Activity (Rattus norvegicus [24]): Non-toxic
Activity (Rattus norvegicus [25]): Non-toxic
Activity (Rattus norvegicus [26]): Toxic
IC50 [6]: < 10 nM
Kp [27]: 1.4

SMILES: Cc1cc2c(cc1C(F)(F)F)NC(=O)CC(c1cccc(-n3cncn3)c1)=N2
IC50 [1]: 75 nM
IC50 [2]: 8 nM

SMILES: Cc1cc2c(cc1C(F)(F)F)NC(=O)CC(c1cccc(-c3ccnc(C4CCCC4)c3)c1)=N2
IC50 [1]: 7 nM
IC50 [2]: 10 nM

SMILES: Cc1cc2c(cc1C(F)(F)F)NC(=O)CC(c1cccc(-c3ccccn3)c1)=N2
IC50 [1]: 30 nM
IC50 [2]: 26 nM

SMILES: Cc1ccc(-c2cccc(C3=Nc4cc(C)c(C(F)(F)F)cc4NC(=O)C3)c2)cn1
IC50 [1]: 5 nM
IC50 [2]: 13 nM

Other lines, results leading:

IC50 [1]: 10 nM
IC50 [2]: 10 nM
SMILES: Cc1cc2c(cc1C(F)(F)F)NC(=O)CC(c1cccc(-c3ccc(C(C)C)nc3)c1)=N2

IC50 [2]: 59 nM
SMILES: Cc1cc2c(cc1C(F)(F)F)NC(=O)CC(c1cccc(-c3ccnc(-n4cccc4)c3)c1)=N2

IC50 [2]: 274 nM
SMILES: Cc1cc2c(cc1C(F)(F)F)NC(=O)CC(c1cccc(-c3ccnc(CN(C)C)c3)c1)=N2

IC50 [1]: 16 nM
IC50 [2]: 13 nM
SMILES: COc1cc(-c2cccc(C3=Nc4cc(C)c(C(F)(F)F)cc4NC(=O)C3)c2)ccn1

IC50 [1]: 18 nM
IC50 [2]: 9 nM
SMILES: CCc1ccc(-c2cccc(C3=Nc4cc(C)c(C(F)(F)F)cc4NC(=O)C3)c2)cn1

IC50 [1]: 4 nM
IC50 [2]: 2 nM
SMILES: Cc1cc(-c2cccc(C3=Nc4cc(C)c(C(F)(F)F)cc4NC(=O)C3)c2)cc(C2CC2)n1

IC50 [1]: 18 nM
IC50 [2]: 12 nM
SMILES: Cc1cc2c(cc1C(F)(F)F)NC(=O)CC(c1cccc(-c3ccnc(C#N)c3)c1)=N2

IC50 [1]: 3 nM
IC50 [4]: 10 nM
IC50 [2]: 8 nM
SMILES: O=C1CC(c2cccc(-c3ccncc3)c2)=Nc2ccc(Cl)cc2N1

IC50 [1]: 5 nM
IC50 [2]: 8 nM
SMILES: CCc1cc(-c2cccc(C3=Nc4cc(C)c(C(F)(F)F)cc4NC(=O)C3)c2)ccn1
